Where a name gives a salt, the structure may show the parent alone.
Structure (SMILES)	melting point
CN(C)CCNC(=O)c1ccccc1-c1nnc(CSCCOc2ccccc2)o1 [Example 64, N-(2-dimethylamino-ethyl)-2-[5-(2-phenoxy-ethylsulfanylmethyl)-[1,3,4]oxadiazol-2-yl]-benzamide]	80 to 85 °C
CCN(CC)CCCCOc1ccc(-c2nnc(CSCCOc3ccccc3)o2)cc1 [Example 93, diethyl-(4-{4-[5-(2-phenoxy-ethylsulfanylmethyl)-[1,3,4]oxadiazol-2-yl]-phenoxy}-butyl)-amine]	35 to 38 °C
CN(C)CCNC(=O)c1ccc(-c2nnc(CSCCOc3ccccc3)o2)cc1 [Example 54, N-(2-dimethylaminoethyl)-4-[5-(2-phenoxyethylsulfanylmethyl)-[1,3,4]oxadiazol-2-yl]-benzamide]	94 to 100 °C
CN(C)CCCOc1ccc(-c2nnc(CSCCOc3ccccc3)o2)cc1 [Example 67, dimethyl-(3-{4-[5-(2-phenoxy-ethylsulfanylmethyl)-[1,3,4]oxadiazol-2-yl]-phenoxy}-propyl)-amine]	70 °C
CN(C)CCCOc1ccc(-c2nnc(CCc3ccc4ccccc4c3)o2)cc1 (as salt: hydrochloride) [Example 205, Dimethyl-{3-[4-(5-naphthalene-2-ylethyl-[1,3,4]oxadiazol-2-yl)phenoxy]propyl}amine]	208 to 210 °C
CN(C)CCCCCCNC(=O)c1ccc(-c2nnc(CSCCOc3ccccc3)o2)cc1 [Example 57, N-(6-dimethylaminohexyl)-4-[5-(2-phenoxyethylsulfanylmethyl)-[1,3,4]oxadiazol-2-yl]-benzamide]	86 to 93 °C
CN(C)CCCCNC(=O)c1cccc(-c2nnc(CSCCOc3ccccc3)o2)c1 [Example 61, N-(4-dimethylamino-butyl)-3-[5-(2-phenoxy-ethylsulfanylmethyl)-[1,3,4]oxadiazol-2-yl]-benzamide]	38 to 42 °C
CN(C)CCCCNC(=O)c1ccccc1-c1nnc(CSCCOc2ccccc2)o1 [Example 63, N-(4-dimethylamino-butyl)-2-[5-(2-phenoxy-ethylsulfanylmethyl)-[1,3,4]oxadiazol-2-yl]-benzamide]	62 to 65 °C
CC(C)N(CCCCOc1ccc(-c2nnc(CSCCOc3ccccc3)o2)cc1)C(C)C [Example 262, diisopropyl-(4-{4-[5-(2-phenoxy-ethylsulfanylmethyl)-[1,3,4]oxadiazol-2-yl]-phenoxy}-butyl)-amine]	42 to 44 °C
CN(C)CCCOc1ccc(-c2nnc(CSCCOc3cccc(OC(F)(F)F)c3)o2)cc1 [Example 276, [3-(4-{5-[2-(3-trifluoromethoxy-phenoxy)-ethylsulfanylmethyl]-[1,3,4]oxadiazol-2-yl}-phenoxy)-propyl]-dimethyl-amine]	46 to 46.5 °C
CN(C)CCCOc1ccc(-c2nnc(CSCCOc3ccccc3)o2)cc1F.O=C(O)/C=C\C(=O)O [Example 287, (3-{2-fluoro-4-[5-(2-phenoxy-ethylsulfanylmethyl)-[1,3,4]oxadiazol-2-yl]-phenoxy}-propyl)-dimethyl-amine; maleic acid salt]	70 to 72 °C
CN(C)CCCOc1c(Cl)cc(-c2nnc(CSCCOc3ccccc3)o2)cc1Cl.O=C(O)/C=C/C(=O)O [Example 283, (3-{2,6-dichloro-4-[5-(2-phenoxy-ethylsulfanylmethyl)-[1,3,4]oxadiazol-2-yl]-phenoxy}-propyl)-dimethyl-amine; fumaric acid salt]	95 to 99 °C
CN(C)CCCOc1ccc(-c2nnc(CSCCOc3ccccc3)o2)cn1 [Example 288, dimethyl-(3-{5-[5-(2-phenoxy-ethylsulfanylmethyl)-[1,3,4]oxadiazol-2-yl]-pyridin-2-yloxy}-propyl)-amine]	69 to 70 °C
CN(C)CCCCCNC(=O)c1ccc(-c2nnc(CSCCOc3ccccc3)o2)cc1 [Example 56, N-(5-dimethylaminopentyl)-4-[5-(2-phenoxyethylsulfanylmethyl)-[1,3,4]oxadiazol-2-yl]-benzamide]	83 to 89 °C
CN(C)CCCOc1ccc(-c2nnc(CSCCOc3ccccc3)s2)cc1 [Example 59, Dimethyl-(3-{4-[5-(2-phenoxyethylsulfanylmethyl)-[1,3,4]thiadiazol-2-yl]-phenoxy}-propyl)-amine]	72 to 73 °C
O=C(NCCN1CCCC1)Nc1ccc(-c2cnc(COCc3cc4ccccc4o3)o2)cc1 [Example 255, 1-{4-[2-(Benzofuran-2-ylmethoxymethyl)-oxazol-5-yl]-phenyl}-3-(2-pyrrolidin-1-yl-ethyl)-urea]	124 to 126 °C
CN(C)CCNC(=O)Nc1ccc(-c2cnc(COCc3cc4ccccc4o3)o2)cc1 [Example 254, 1-{4-[2-(benzofuran-2-ylmethoxymethyl)-oxazol-5-yl]-phenyl}-3-(2-dimethylamino-ethyl)-urea]	150 to 154 °C
CN1CCCC(Oc2ccc(-c3nnc(CSCCOc4ccccc4)o3)cc2)CC1 (stereo not shown) [Example 97, 1-methyl-4-{4-[5-(2-phenoxy-ethylsulfanylmethyl)-[1,3,4]oxadiazol-2-yl]-phenoxy}-azepane]	60 to 61 °C
CC(C)N(CCOc1ccc(-c2nnc(CSCCOc3ccccc3)o2)cc1)C(C)C [Example 73, diisopropyl-(2-{4-[5-(2-phenoxy-ethylsulfanylmethyl)-[1,3,4]oxadiazol-2-yl]-phenoxy}-ethyl)-amine]	42 to 45 °C
CN(C)CCCCCCCOc1ccc(-c2nnc(CSCCOc3ccccc3)o2)cc1 [Example 71, dimethyl-(7-{4-[5-(2-phenoxy-ethylsulfanylmethyl)-[1,3,4]oxadiazol-2-yl]-phenoxy}-heptyl)-amine]	39 to 40 °C
CCN(CC)CCOc1ccc(-c2nnc(CSCCOc3ccccc3)o2)cc1 [Example 85, diethyl-(2-{4-[5-(2-phenoxy-ethylsulfanylmethyl)-[1,3,4]oxadiazol-2-yl]-phenoxy}-ethyl)-amine]	32 to 35 °C
c1ccc(OCCSCc2nnc(-c3ccc(OCc4cccnc4)cc3)o2)cc1 [Example 100, 3-{4-[5-(2-phenoxy-ethylsulfanylmethyl)-[1,3,4]oxadiazol-2-yl]-phenoxymethyl}-pyridine]	111 to 112 °C
CN(C)CCCOc1ccc(-c2nnc(CSCCOCc3ccccc3)o2)cc1 (as salt: maleate) [Example 282, (3-{4-[5-(2-phenylmethoxy-ethylsulfanylmethyl)-[1,3,4]oxadiazol-2-yl]-phenoxy}-propyl)-dimethyl-amine]	71.5 to 72 °C
CN(C)CCCNC(=O)c1ccccc1-c1nnc(CSCCOc2ccccc2)o1 [Example 65, N-(3-dimethylamino-propyl)-2-[5-(2-phenoxy-ethylsulfanylmethyl)-[1,3,4]oxadiazol-2-yl]-benzamide]	60 to 65 °C
CN(C)CCCOc1ccc(-c2nnc(CSCCOc3ccc4ccccc4c3)o2)cc1 [Example 279, [3-(4-{5-[2-(2-naphthoxy)-ethylsulfanylmethyl]-[1,3,4]oxadiazol-2-yl}-phenoxy)-propyl]-dimethyl-amine]	97 to 98 °C
CN(C)CCCOc1ccc(-c2nnc(CSCCOc3ccccc3OC(F)(F)F)o2)cc1 [Example 275, [3-(4-{5-[2-(2-trifluoromethoxy-phenoxy)-ethylsulfanylmethyl]-[1,3,4]oxadiazol-2-yl}-phenoxy)-propyl]-dimethyl-amine]	55 to 55.5 °C

Results, then the compound that gave them:

melting point	Structure (SMILES)
46 to 50 °C	CN1CCCC1CCOc1ccc(-c2nnc(CSCCOc3ccccc3)o2)cc1 (stereo not shown) [Example 96, 2-{4-[2-(1-methyl-pyrrolidin-2-yl)-ethoxy]-phenyl}-5-(2-phenoxy-ethylsulfanylmethyl)-[1,3,4]oxadiazole]
60 °C	c1ccc(OCCSCc2nnc(-c3ccc(OCCN4CCSCC4)cc3)o2)cc1 [Example 90, 4-(2-{4-[5-(2-phenoxy-ethylsulfanylmethyl)-[1,3,4]oxadiazol-2-yl]-phenoxy}-ethyl)-thiomorpholine]
73 to 75 °C	C(=C\c1ccc(-c2cnc(CSCCOc3ccccc3)o2)cc1)/CN1CCCC1 [Example 268, 2-(2-phenoxy-ethylsulfanylmethyl)-5-[4-(3-pyrrolidin-1-yl-propenyl)-phenyl]-oxazole]
65 °C	c1ccc(OCCSCc2nnc(-c3ccc(OCCCN4CCCCC4)cc3)o2)cc1 [Example 75, 1-(3-{4-[5-(2-phenoxy-ethylsulfanylmethyl)-[1,3,4]oxadiazol-2-yl]-phenoxy}-propyl)-piperidine]
67 to 68 °C	N#CCCCOc1ccc(-c2nnc(CSCCOc3ccccc3)o2)cc1 [Example 264, 4-{4-[5-(2-phenoxy-ethylsulfanylmethyl)-[1,3,4]oxadiazol-2-yl]-phenoxy}-butyronitrile]
40 °C	c1ccc(OCCSCc2nnc(-c3ccc(OCCN4CCCCCC4)cc3)o2)cc1 [Example 86, 1-(2-{4-[5-(2-phenoxy-ethylsulfanylmethyl)-[1,3,4]oxadiazol-2-yl]-phenoxy}-ethyl)-azepane]
32 to 35 °C	c1ccc(OCCSCc2ncc(-c3ccc(OCCCN4CCCCCC4)cc3)o2)cc1 [Example 266, 1-(3-{4-[2-(2-phenoxy-ethylsulfanylmethyl)-oxazol-5-yl]-phenoxy}-propyl)-azepane]
89 to 94 °C	O=C(O)C(=O)O.c1ccc(OCCSCc2ncc(-c3ccc(OCCCN4CCCCCCC4)cc3)o2)cc1 [Example 267, 1-(3-{4-[2-(2-phenoxy-ethylsulfanylmethyl)-oxazol-5-yl]-phenoxy}-propyl)-azocane oxalic acid salt]
55 to 57 °C	O=C1CCN(CCCOc2ccc(-c3nnc(CSCCOc4ccccc4)o3)cc2)CC1 [Example 260, 1-(3-{4-[5-(2-Phenoxy-ethylsulfanylmethyl)-[1,3,4]oxadiazol-2-yl]-phenoxy}-propyl)-piperidin-4-one]
70 °C	c1ccc(OCCSCc2nnc(-c3ccc(OCCCN4CCCC4)cc3)o2)cc1 [Example 88, 2-(2-phenoxy-ethylsulfanylmethyl)-5-[4-(3-pyrrolidin-1-yl-propoxy)-phenyl]-[1,3,4]oxadiazole]
57 to 62 °C	c1ccc(OCCSCc2nnc(-c3ccc(OCCCCN4CCCCC4)cc3)o2)cc1 [Example 81, 1-(4-{4-[5-(2-phenoxy-ethylsulfanylmethyl)-[1,3,4]oxadiazol-2-yl]-phenoxy}-butyl)-piperidine]

From US7229987B2, “Multicyclic compounds for use as melanin concentrating hormone antagonists in the treatment of obesity and diabetes” (Eli Lilly and Company, priority 2002, dated 2007)
